Test results from patent publication US20120148677A1, “CONTROLLED RELEASE PARTICLES CONTAINING ACID FIBROBLAST GROWTH FACTOR” (Taipei Veterans General Hospital, priority 2010, published 2012).

Key:
PC-12 cells = test: 6-OHDA neurotoxicity in PC-12 cells, MTT cell viability assay; format: cell-based
Protocol: The neurotoxicity was test by PC-12 cells which were rat pheochromocytoma cell line. The cells were supplied by the Bioresource Collection and Research Center, Food Industry Research and Development Institute, Hsinchu, Taiwan, and maintained in RPMI 1640 supplemented with 10% HBS, 5% FBS, 1% penicillin/streptomycin (Gibco) at 37° C. in a humidified atmosphere containing 5% CO2 and the culture medium was changed every 2 days.
6-hydroxydopamin (6-OHDA) is a neurotoxin, which leads to apoptosis of catecholaminergic cells. This pharmacological mechanism can be used to test neuron protecting efficiency of aimed drugs. The cells were seeded in 96 well plates at a density of 4×10^4 cells/well, which were pre-coated with collagen. Following 24 hrs of starvation, the medium was changed into 5% serum. The experimental groups were given different treatments and added with 6-OHDA (sigma) until reaching the concentration of 100 uM. The medium without 6-OHDA works as control. The relative number of viable cells was monitored by MTT assay.
MTT (3-(4,5-Dimethylthiazol-2-yl)-2,5-diphenyltetrazolium bromide) was a tetrazolium salt that can be reduced to purple-colored formazan by normal cell. The stock solution of MTT (5 mg/ml) was added into each well to make the medium of 0.5 mg/ml MTT and cells were incubated for 4 h. The supernatant was removed to obtain the MTT metabolic product, formazan, which was then dissolved in 120 ul DMSO (dimethylsulfoxide, sigma) and placed on a shaking table for 5 min until thoroughly dissolved. 100 ul of dissolved-formazan from each well was transferred into another plate to measure the absorbance with 560 nm at background 670 nm.
The dosage used was 100 uM, which caused about 40% apoptosis. […] The empty particles (without aFGF) and the particles entrapping an aFGF were soaked in culture medium for 2 days at 4° C. The supernatant was then collected and diluted at different concentrations for treatment of the 6-OHDA-damaged PC-12 cells.

trypsin = molecular target: T1, trypsin (Bos taurus, UniProt P00760); test: Proteolytic sensitivity to trypsin digestion, Western blot; format: in vitro ADME; settings: after 5 min of digestion, aFGF:trypsin 1:400, PBS, 37° C.
T1 construct: purchased Sigma T1426
T1 sequence (P00760 24-246): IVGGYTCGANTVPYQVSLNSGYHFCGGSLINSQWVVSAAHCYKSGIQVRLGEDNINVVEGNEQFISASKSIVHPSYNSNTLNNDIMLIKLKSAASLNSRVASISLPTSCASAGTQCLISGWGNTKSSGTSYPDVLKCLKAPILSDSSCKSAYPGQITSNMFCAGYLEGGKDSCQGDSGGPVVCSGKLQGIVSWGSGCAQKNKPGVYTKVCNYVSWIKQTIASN
Protocol: In order to test how well of the particles can protect aFGF from an enzyme digestion, we mixed aFGF or the particles entrapping aFGF with a protein enzyme, trypsin. The aFGF and trypsin (Sigma, T1426) was mixed with the ratio of 1:400 in PBS bathed at 37° C. Ten microliters of product was taken out at various time intervals to mix with 10 ul of 2×SDS-sample buffer. The solution was then immediately being boiled for 5 mins to cease enzyme reaction.
As shown in the results, the binding of aFGF to heparin increased the stability to overcome the challenge in vivo. To simulate physiological environment, the experiment was held at 37° C. The intact aFGF and aFGF in the particles of the invention were digested by Trypsin respectively, and aFGF antibody was used to detect the remaining aFGF. With the increase in time of enzyme digestion, the amount of aFGF decreases.

| Compound | apoptosis (PC-12 cells; 100 uM 6-OHDA, PC-12 cells) | EC50 (PC-12 cells; Rattus norvegicus, PC-12, read-out: ED50 (neurotoxicity)) | remaining aFGF band after trypsin digestion (trypsin) | survival rate (PC-12 cells; 10 pg/ml aFGF, 100 uM 6-OHDA, PC-12 cells) | survival rate (PC-12 cells; 10 ng/ml aFGF, 100 uM 6-OHDA, PC-12 cells) | effect on PC-12 death (PC-12 cells; 6-OHDA-treated PC-12 cells, FIG. 5) |
| --- | --- | --- | --- | --- | --- | --- |
| NCCc1cc(O)c(O)cc1O [6-OHDA, 6-hydroxydopamin, reference compound] | about 40% | ~125 µM | – | – | – | – |
| acid fibroblast growth factor [aFGF] | – | – | almost disappeared | more than 72.63% | 88.41% | significantly blocks PC-12 death |
